Assay results from patent publication US20040106687A1, “Carotenoids as anti-hypertension agents” (priority 2001, published 2004).

Test system: healthy young individuals
Assay: Double-blind, placebo-controlled crossover study of lycopene consumption, heart rate and blood pressure measured
Type: in vivo, human
Description: A double-blind, placebo-controlled crossover study of lycopene consumption in 16 healthy young individuals. Each subject was studied at baseline and then given 15 mg lycopene or placebo for two weeks and re-evaluated. A one-month lycopene administration free washout period followed, another lycopene administration was administered prior to a final evaluation. Each evaluation included measures among other parameters also heart rate and blood pressure. […]

[1] = 16 healthy young individuals, 15 mg lycopene for two weeks

Compound: CC(C)=CCC/C(C)=C/C=C/C(C)=C/C=C/C(C)=C/C=C/C=C(C)/C=C/C=C(C)/C=C/C=C(\C)CCC=C(C)C [Lycopene, lycopene]
- Diastolic Blood Pressure [1]: 66 ± 2 mmHg
- Systolic Blood Pressure [1]: 114 ± 2 mmHg
- Change in diastolic blood pressure as compared to placebo administration (during lycopene administration, 15 mg for two weeks, p<0.05): significant reduction
